A short description of this series: gradient 5% acetonitrile 3 min, to 50% in 2 min, to 85% in 15 min, held 3 min, 100 µL/min. The note with it: column: Zorbax Extend-C18 2.1 x 50 mm; eluents: water / acetonitrile, 0.1% formic acid. An outline of the steps: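 In both positive and negative ionization mode, a quadrupole time-of-flight mass spectrometer coupled to HPLC analyzed pure standards run in mixtures of ~100 molecules. The Zorbax Extend-C18 column (2.1 × 50 mm, 1.8 μm) was operated at 100 μL/min with water and acetonitrile, each containing 0.1% formic acid. The dead volume was 40 μL and the dwell volume 900 μL. Retention time came from adduct peaks that were computationally picked and individually inspected by hand.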
In turn, `COC(=O)CNC(=O)N1CCN(Cc2ccc(C)cc2)c2ncccc21` displayed an RP-LC retention time of 651 s.
The result for `Cc1[nH]c(C)c(S(=O)(=O)N2CCC(C(=O)Nc3ccc(F)cc3F)CC2)c1C(=O)N1CCCC1` reads 676 s.
The result for `COCCNC(=O)NCc1ccc2c(c1)N(C(=O)c1ccc(C)cc1)CC2` reads 723 s; that for `CCC(=O)N1CCCc2ccc(NC(=O)c3cccs3)cc21`, 827 s.
To `Cn1ccc2cc(S(=O)(=O)N3CCC(C(=O)N4CCN(c5ccccn5)CC4)CC3)ccc21` belongs 648 s; to `Cc1nnc(-c2ccc3ccn(CC(=O)N4CCN(C(=O)c5ccco5)CC4)c3c2)o1`, 674 s; to `Cc1ccc(Cn2c(=O)n(CCNC(=O)c3cccn3C)c3ncccc32)cc1`, 822 s.
In turn, `COc1ccc(CCC(=O)NC(CC(C)C)C(=O)Nc2nc3ccccc3[nH]2)cc1` (stereo not drawn) returned an RP-LC retention time of 745 s.
To `CC(C)(C)CC(=O)N1C[C@H]2C[C@H](C1)[C@H]1CCCC(=O)N1C2` belongs 654 s.
`Cc1nn(CCCC(=O)N2CCN(c3ccccn3)CC2)c(=O)c2noc(C)c12` showed an RP-LC retention time of 580 s.
The result for `Cc1nn(C2CCS(=O)(=O)C2)c(C)c1S(=O)(=O)NCc1ccco1` (stereo not drawn) reads 638 s.
Compound `O=C(CN1CC=C(c2cnn(-c3ccc(F)cc3)c2)CC1)N1CCCCC1` gave an RP-LC retention time of 661 s.
The result for `O=C(NC1CC1)[C@@H]1C[C@H](Oc2cccnc2)CN1C(=O)c1ccoc1` reads 546 s.
As to `O=C(NCc1cccs1)C(=O)NCC1(c2ccc(F)cc2)CC1`, the RP-LC retention time worked out at 727 s.
To `COc1ccccc1CNS(=O)(=O)c1ccc2c(c1)CCCC(=O)N2` belongs 721 s; to `C[C@H]1CN(C(=O)COc2ccc(F)cc2)C[C@@H]1c1nc(-c2ccncc2)no1`, 793 s; to `Cc1cc(C(=O)N2CCCn3nc(-c4ccc(F)cc4)cc3C2)nn1C`, 629 s.
The result for `O=C(CSc1nc2ncccc2[nH]1)Nc1ccccc1C(F)(F)F` reads 649 s; that for `Cn1c(=O)n(C)c2cc(N3CCCC3)c(NC(=O)Cc3ccccc3)cc21`, 670 s.
To `COc1cc(OC)c2c(C)cc(=O)oc2c1` belongs 809 s; to `CCOC(=O)c1c(C)[nH]c(C(=O)N2CCCC(C(=O)NCc3cccc(Cl)c3)C2)c1C` (stereo not drawn), 848 s; to `Cc1cc2oc(=O)c(C)c(C)c2c2c1C(=O)CC(c1ccc3c(c1)OCO3)O2` (stereo not drawn), 1110 s.
As for `O=C(c1ccc2cc[nH]c2c1)N1CCN(c2cc(-c3ccccc3)[nH]n2)CC1`, the RP-LC retention time is 748 s.
The result for `Cc1noc(-c2cccc(OC3CN(S(=O)(=O)c4cn(C)cn4)C3)c2)n1` reads 746 s.
Compound `COc1cccc(-c2nc3cnccn3c2NCCC(=O)NC2CCN(C)CC2)c1` yielded an RP-LC retention time of 554 s.
The result for `Cc1ccc(CNC(=O)Cn2cccc2-c2nnc(-c3ccccc3)o2)cc1` reads 940 s.
To `COCCN1C(=O)CCc2cc(NC(=O)CCc3ccccc3)ccc21` belongs 761 s; to `Cc1cccc(CC(=O)N2C[C@@H]3C[C@H](NC(=O)c4ccccc4)[C@H]2C3)c1`, 794 s.
The result for `Cc1sc(NC(=O)CCC2CCCCC2)nc1-c1ccc2c(c1)NC(=O)CO2` reads 1060 s.
`CC(C)N1CCn2cc(S(=O)(=O)Nc3ccc(F)cc3F)cc2C1=O` gave an RP-LC retention time of 759 s.
In turn, `O=C(COc1ccc(F)cc1)N1CCOc2ccc(N3CCOCC3)cc2C1` yielded an RP-LC retention time of 787 s.
To `CCOc1ccc(-c2noc(Cc3nnc(-c4ccc(C)c(C)c4)o3)n2)cc1` belongs 1200 s; to `CCC1CN2C=NC(N3CCN(C(=O)Nc4ccc(SC)cc4)CC3)=CC2=N1` (stereo not drawn), 655 s; to `Cc1c(Cl)cccc1S(=O)(=O)N1CCc2nc(-c3ccc(F)cc3)ncc2C1`, 1250 s.
For the compound `N#CC1=CN(c2cccc(Br)c2)c2ccccc2S1(=O)=O`, the RP-LC retention time turned out to be 939 s.
With `Cc1nc(-c2csc(S(=O)(=O)N3CCC(C(=O)Nc4ccc(Cl)cc4F)CC3)c2)no1`, the RP-LC retention time amounted to 990 s.
The result for `Cc1noc2ncnc(N3CCN(c4ccccn4)CC3)c12` reads 562 s; that for `COc1ccc(NC(=O)C2CCN(S(=O)(=O)c3ccc4c(c3)CCCN4C(C)=O)CC2)cc1`, 780 s; that for `CC(NC(=O)c1ccco1)c1nc(-c2ccc3ncn(C)c3c2)no1` (stereo not drawn), 599 s.
The result for `Cc1ccc2nc(-c3cc(Br)ccc3F)c(Nc3ccccc3C)n2c1` reads 793 s.
The result for `Cc1ccc(C(=O)N2[C@H]3CC[C@@H]2c2cnc(-c4ccccc4)nc2C3)cn1` reads 689 s; that for `CCn1nc(CNC(=O)c2ccc(C#N)cc2)c2ccccc21`, 808 s.
`Cc1[nH]c(C(=O)N2CCC(CC(=O)N3CCN(c4ccccn4)CC3)CC2)c(C)c1C(=O)OC(C)C` displayed an RP-LC retention time of 628 s.
To `COC(=O)c1ccccc1NC(=O)c1c(O)c2cccc3c2n(c1=O)CC3` belongs 1170 s; to `CCOc1ccc(NC(=O)N2CCN(CCn3c(C(F)(F)F)nc4cccnc43)CC2)cc1`, 649 s.
`CCc1noc(NC(C)=O)c1-c1ccc(C)c(S(=O)(=O)Nc2c(C)cccc2C)c1`: the RP-LC retention time worked out at 861 s.
`CS(=O)(=O)c1nc2ccc(NS(=O)(=O)c3ccc(Br)s3)cc2s1` registered an RP-LC retention time of 888 s.
Regarding `O=C(CCC1CCCN(S(=O)(=O)c2ccccc2)C1)N1CCCCC1` (stereo not drawn), the RP-LC retention time was 902 s.
To `O=C(C1CCN(c2ncnc3c2oc2ccccc23)CC1)N1CCN(c2ccccc2Cl)CC1` belongs 930 s; to `O=C(c1ccc2ccccc2n1)N1CCN(c2cc(-c3cccnc3)[nH]n2)CC1`, 602 s; to `CC1CCN(c2cc(-n3cnc(C(=O)N4CCN(c5ccccc5)CC4)c3)ncn2)CC1`, 1040 s.
Compound `CCOc1ccc2nc(NC(=O)Cc3csc4nc(-c5ccccc5)cn34)sc2c1` yielded an RP-LC retention time of 874 s.
To `COc1ccccc1-c1[nH]ncc1CN1CC(F)(F)C[C@H]1CN1CCOCC1` belongs 555 s; to `O=C(NC1CCCCCC1)C1CCCN(c2nc3ccccc3n(Cc3ccccc3)c2=O)C1` (stereo not drawn), 1290 s; to `Cc1onc(-c2ccccc2)c1C(=O)Nc1nc(-c2ccc(F)cc2)cs1`, 1090 s.
As for `O=C(c1ccccc1Br)N1CCc2nc(-c3ccc(F)cc3)ncc2C1`, the RP-LC retention time came to 1010 s.
To `O=C([C@@H]1C[C@H](F)CN1C(=O)NCc1ccc(F)cc1)N1CCc2ccccc2C1` belongs 747 s.
Turning to `CCNc1cc(N2CCCC(CCC(=O)NC(CC)CC)C2)ncn1` (stereo not drawn), the RP-LC retention time came to 658 s.
For `Cc1c(-c2cccc(NC(=O)C3CCCCC3)c2)nc2ncccn12`, the RP-LC retention time is 663 s.
To `Cc1ccc(NC(=O)C2CCN(S(=O)(=O)c3cn(C(C)C)cn3)CC2)nc1` belongs 626 s.
To `CNC(=O)c1cc(-c2ccccc2)n[nH]1` belongs 643 s.
Turning to `O=C(NCc1cc(F)cc(F)c1)c1cn2cc(Cl)ccc2n1`, the RP-LC retention time was determined as 857 s.
Compound `Cn1ccnc1C(=O)N1CCC(Cc2noc(C3CC3)n2)C1` (stereo not drawn) gave an RP-LC retention time of 590 s.
Compound `O=C(Cn1cccc1-c1nc(-c2ccccc2)cs1)NCc1ccco1` displayed an RP-LC retention time of 1030 s.
To `Cc1cccc(NC(=O)Cn2nc3c(Oc4cccc(Cl)c4)nccn3c2=O)c1` belongs 899 s; to `O=C(CCCc1nnc2c(=O)n(-c3ccc(Cl)cc3)ccn12)N1CCN(c2ccccn2)CC1`, 595 s; to `COC(=O)C1=CN(c2cccc(F)c2)c2ccc(F)cc2S1(=O)=O`, 838 s.
The result for `CC1Cc2ccccc2N1C(=O)C1CCN(S(=O)(=O)c2cn(C(C)C)cn2)CC1` (stereo not drawn) reads 779 s; that for `CS(=O)(=O)N1CCC(OC2CCN(C(=O)NCc3cccc(F)c3)CC2)CC1`, 730 s; that for `Cc1ccccc1Oc1nccn2c(=O)n(CC(=O)Nc3ccc(F)cc3)nc12`, 838 s.
Turning to `Cn1c(Cn2c(=O)sc3ccccc32)nnc1SCC(=O)N1CCc2ccccc21`, the RP-LC retention time amounted to 746 s.
`CN(Cc1ccccc1)Cc1cc(=O)n2cc(Cl)ccc2n1` showed an RP-LC retention time of 608 s.
For the compound `CC(=O)N1c2ccc(S(=O)(=O)N3CCCCC3)cc2CC1C(=O)N1CCC(C)CC1` (stereo not drawn), the RP-LC retention time came out at 881 s.
To `CCOc1ccc(OCC)c(NC(=O)CN2C(=O)C(C)(C)c3ccccc32)c1` belongs 1090 s.
`C/C=C(\C)C(=O)O[C@H]1CC[C@@]2(C)[C@@H]3CC[C@H]4[C@]5(O)C[C@H](O)[C@@]6(O)[C@@H](CN7C[C@@H](C)CC[C@H]7[C@@]6(C)O)[C@]5(O)C[C@@]42O[C@]13O` had an RP-LC retention time of 692 s.
The result for `Cc1cc(C)cc(NC(=O)CN2C(=O)COc3ccc(C(=O)N4CCCC4)cc32)c1` reads 773 s; that for `CC(NC(=O)CCNc1c(-c2cccc(F)c2)nc2cnccn12)c1cccs1` (stereo not drawn), 728 s; that for `COc1ccccc1Nc1c(-c2ccc3c(c2)OCO3)nc2cnccn12`, 859 s.

Values taken from the METLIN SMRT retention time set (Domingo-Almenara et al. 2019).
